Values of other authors as cited in patent US8759364B2, “Methods of treating bone mass diseases” (The Trustees of Columbia University in the City of New York, priority 2008, dated 2014).

What was measured:
[1] = tested on: Serotonin levels in the small intestine; settings: mice, twice per day over 3-4 days, about 30-90 mg/kg; after six consecutive doses; cited from earlier work
[2] = tested on: brain-derived serotonin; settings: mice, cited from earlier work
[3] = biological target: T1, TPH2 (Homo sapiens, UniProt Q8IWU9); settings: cited from earlier work
T1 sequence (Q8IWU9 1-490): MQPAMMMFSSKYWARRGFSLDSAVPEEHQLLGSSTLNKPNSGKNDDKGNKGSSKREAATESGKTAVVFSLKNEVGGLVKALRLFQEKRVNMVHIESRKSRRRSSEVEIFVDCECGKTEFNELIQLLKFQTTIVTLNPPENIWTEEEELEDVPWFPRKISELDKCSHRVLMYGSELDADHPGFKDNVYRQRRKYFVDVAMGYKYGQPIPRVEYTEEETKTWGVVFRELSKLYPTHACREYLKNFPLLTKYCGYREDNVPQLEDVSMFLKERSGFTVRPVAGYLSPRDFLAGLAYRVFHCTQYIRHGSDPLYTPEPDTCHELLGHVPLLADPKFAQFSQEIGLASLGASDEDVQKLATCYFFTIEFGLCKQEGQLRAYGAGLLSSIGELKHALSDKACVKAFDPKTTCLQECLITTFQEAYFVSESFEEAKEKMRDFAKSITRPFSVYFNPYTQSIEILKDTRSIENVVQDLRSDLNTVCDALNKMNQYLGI

[4] = tested on: serotonin in the GI tract; settings: cited from earlier work
[5] = tested on: brain serotonin levels; settings: in the amounts administered to mice; cited from earlier work
[6] = oral, single dose 250 mg to 2,000 mg/day and multiple doses 250-1,000 mg/day; all dose levels; cited from earlier work
[7] = in vivo; cited from earlier work

Q: Which results are given for `Nc1nc(OC(c2ccc(-c3cccc(F)c3)cc2)C(F)(F)F)cc(-c2ccc(C[C@H](N)C(=O)O)cc2)n1` (stereo partly drawn) [LP-533401]?
A: Serotonin levels in the small intestine [1]: significantly lowered; brain-derived serotonin ([2]; twice per day over 3-4 days, about 30-90 mg/kg): unchanged; crossing of the blood-brain barrier in vivo [2]: did not cross; inhibition of TPH2 compared with TPH1 [3]: as effectively as; serotonin in the GI tract reduced to fraction of normal levels ([4]; 135 mg/kg, po, qd): less than ⅔; dose response of GI tract serotonin reduction ([4]; mouse, in vivo): dose response curve; brain serotonin levels [5]: not affected; adverse events [6]: Infrequent

Q: With `CC(C)NCC(O)COc1cccc2[nH]ccc12` (stereo not drawn) [Pindolol, pindolol] as the molecule, how does the “absorption from the GI tract” value [7] read?
A: Its value is “beta blocker; rapidly and well”.
